The EC50 is the concentration needed to bring the measured effect to its halfway point. Low values mean higher potency in that assay, high ones lower potency in that assay. What is called EC90 is the point of the concentration-response curve where the effect stands at 90%. Higher therefore signals weaker potency.

The text below walks through data of patent US8329658B2, “Arylalkyl and heteroarylalkyl derivatives of cyclosporine A for the treatment and prevention of viral infection” (Scynexis, Inc., priority 2005, dated 2012).

The subject of one data set is HCV RNA replicon ET. In words: HCV RNA replicon luciferase (LUC) reporter assay in ET cell line. As to conditions: replicon LUC activity, ET cells, 72 hours; for EC50: concentration reducing viral replication by 50%; for EC90: concentration reducing viral replication by 90%. Type of data set: cell-based. The text has this: (§1) Compounds were examined in the human hepatoma cell line ET (lub ubi neo/ET), a HCV RNA replicon containing a stable luciferase (LUC) reporter. The HCV RNA replicon ET contains the 5′ end of HCV (with the HCV Internal Ribosome Entry Site (IRES) and the first few amino acids of the HCV core protein) which drives the production of a firefly luciferase (LUC), ubiquitin, and neomycin phosphotransferase (NeoR) fusion protein. Ubiquitin cleavage releases the LUC and NeoR proteins. The EMCV IRES element controls the translation of the HCV […] NS3-NS5. The NS3 protein cleaves the HCV polyprotein to release the mature NS3, NS4A, NS4B, NS5A and NS5B proteins that are required for HCV replication. At the 3′ end of the replicon is the authentic 3′ NTR of HCV. The activity of the LUC reporter is directly proportional to HCV replication levels and positive-control antiviral compounds produce a reproducible antiviral response using the LUC endpoint.
(§2) The compounds were dissolved in DMSO at five half-log concentrations each, ranging from either 0.02 to 2 μM or 0.2 to 20 μM. Subconfluent cultures of the ET line were plated out into 96 well plates dedicated for the analysis of cell numbers (cytotoxicity) or antiviral activity and the next day the compounds were added to the appropriate wells. […] Compound EC50 and EC90 values were derived from HCV RNA levels assessed as HCV RNA replicon derived LUC activity. […] Compound IC50 and IC90 values were calculated using a colorimetric assay as an indication of cell numbers and cytotoxicity. The activity of the LUC reporter is directly proportional to HCV RNA levels in the human cell line. The HCV-replicon assay was validated in parallel experiments using interferon-alpha-2b as a positive control.
Background: Replicon systems follow genome replication, usually without infectious particles.

The subject of data set [1] is human hepatoma cell line ET (lub ubi neo/ET). The data set is described as follows: Cytotoxicity (colorimetric cell number assay) in HCV replicon ET cell line. The following applies: for IC50: read-out: Cytotoxicity IC50, concentration inhibiting cell viability by 50%, ET cells, 72 hours; for IC90: read-out: Cytotoxicity IC90, concentration inhibiting cell viability by 90%, ET cells, 72 hours.
Text: as §1, §2

In the next data set the test system is HIV-1IIIB. The data set is described as follows: HIV MTS cytoprotection assay in CEM-SS cells. As to conditions: concentration inhibiting virus replication by 50%, 6 days post-infection, NS is no significant activity. In kind it is cell-based, human immunodeficiency virus-1 (HIV). The method, then:
(§3) The compounds of the present invention were tested for antiretroviral activity against human immunodeficiency virus-1 (HIV) using infection of the human T-lymphoblastoid cell line, CEM-SS, with the HIV strain HIV-1IIIB (Weislow et al., 1989, J. Natl. Cancer Inst. 81, 577-586). In this MTS cytoprotection assay, each experiment included cell control wells (cells only), virus control wells (cells plus virus), drug toxicity wells (cells plus drug only), drug colorimetric control wells (drug only) as well as experimental wells (drug plus cells plus virus). Compounds were first dissolved in DMSO and tested using six half-log dilutions, starting with a high concentration of either 20 or 2 μM. […] was added to each well in a volume of 50 μL, the amount of virus determined to give approximately 90% cell killing at 6 days post-infection. At assay termination, assay plates were stained with the soluble tetrazolium-based dye MTS (CellTiter 96 Reagent, Promega) to determine cell viability and quantify compound toxicity. MTS is metabolized by the mitochondria enzymes of metabolically active cells to yield a soluble formazan product, providing a quantitative analysis of cell viability and compound cytotoxicity. The assay was validated in parallel experiments using Zidovudine (3′-azido-3′-deoxythymidine or AZT) as a positive control. The assay included determinations of compound EC50 (concentration inhibiting virus replication by 50%), IC50 (concentration resulting in 50% inhibition of cell growth) and a selectivity index (IC50/EC50).
In general terms: Formazan colour is commonly taken as a measure of viable cells.

Data set [2] has as its system human T-lymphoblastoid cell line, CEM-SS. The data set is described as follows: Cytotoxicity (MTS) in CEM-SS cells. The following applies: concentration resulting in 50% inhibition of cell growth. Type of data set: cell-based. The method, then:
as §3

Turning to `CC=CCC(C)C(O)C1C(=O)NC(CC)C(=O)N(C)C(SCc2ccccc2)C(=O)N(C)C(CC(C)C)C(=O)NC(C(C)C)C(=O)N(C)C(CC(C)C)C(=O)NC(C)C(=O)NC(C)C(=O)N(C)C(CC(C)C)C(=O)N(C)C(CC(C)C)C(=O)N(C)C(C(C)C)C(=O)N1C` (stereo not drawn) [Compound A, 3-benzylthiocyclosporin], in the data set with HCV RNA replicon ET, the EC50 stood at 720 nM and the EC90 worked out at 1840 nM. For the same molecule, in data set [1], the IC50 worked out at 20000 nM and the IC90 was greater than 20000 nM. Besides, a half-maximal effect in the data set on HIV-1IIIB (EC50) was put at 530 nM. Also, the IC50 in data set [2] was greater than 20000 nM.
In the data set with HCV RNA replicon ET, `C/C=C/C[C@@H](C)[C@@H](O)[C@H]1C(=O)N[C@@H](CC)C(=O)N(C)C(OCc2ccsc2)C(=O)N(C)[C@@H](CC(C)C)C(=O)N[C@@H](C(C)C)C(=O)N(C)[C@@H](CC(C)C)C(=O)N[C@@H](C)C(=O)N[C@H](C)C(=O)N(C)[C@@H](CC(C)C)C(=O)N(C)[C@@H](CC(C)C)C(=O)N(C)[C@@H](C(C)C)C(=O)N1C` (stereo partly drawn) [G, 3-[(thiophene-3-yl)methoxy]cyclosporin] yielded an EC50 of 350 nM and an EC90 of 400 nM. Moreover, in data set [1], the IC50 was greater than 20000 nM and the IC90 was greater than 20000 nM. Besides, a half-maximal response in the data set with HIV-1IIIB (EC50) required 3000 nM. The IC50 in data set [2] was greater than 20000 nM.
As to `C/C=C/C[C@@H](C)[C@@H](O)[C@H]1C(=O)N[C@@H](CC)C(=O)N(C)C(OCc2cccs2)C(=O)N(C)[C@@H](CC(C)C)C(=O)N[C@@H](C(C)C)C(=O)N(C)[C@@H](CC(C)C)C(=O)N[C@@H](C)C(=O)N[C@H](C)C(=O)N(C)[C@@H](CC(C)C)C(=O)N(C)[C@@H](CC(C)C)C(=O)N(C)[C@@H](C(C)C)C(=O)N1C` (stereo partly drawn) [C, 3-[(thiophene-2-yl)methoxy]cyclosporin], the EC50 in the data set with HCV RNA replicon ET was 350 nM; with HIV-1IIIB, 900 nM. Further, it took 1260 nM to reach the 90% level with HCV RNA replicon ET (EC90). Besides, the IC50 in data set [1] was 11000 nM; in data set [2], greater than 20000 nM. For the same molecule, the IC90 in data set [1] was greater than 20000 nM.
On to `C/C=C/C[C@@H](C)[C@@H](O)[C@H]1C(=O)N[C@@H](CC)C(=O)N(C)C(OCc2ccoc2)C(=O)N(C)[C@@H](CC(C)C)C(=O)N[C@@H](C(C)C)C(=O)N(C)[C@@H](CC(C)C)C(=O)N[C@@H](C)C(=O)N[C@H](C)C(=O)N(C)[C@@H](CC(C)C)C(=O)N(C)[C@@H](CC(C)C)C(=O)N(C)[C@@H](C(C)C)C(=O)N1C` (stereo partly drawn) [Compound E, 3-[(furan-3-yl)methoxy]cyclosporin], for which the EC50 with HCV RNA replicon ET turned out to be 250 nM; in the data set on HIV-1IIIB, 880 nM. In the data set with HCV RNA replicon ET, this molecule had an EC90 of 600 nM. In addition, the IC50 in data set [1] and in data set [2] was greater than 20000 nM in each case. Also, the IC90 in data set [1] is greater than 20000 nM.
3-benzyloxycyclosporin [Compound B]: in the data set with HCV RNA replicon ET, a half-maximal response (EC50) required 260 nM and the EC90 amounted to 590 nM. In addition, in data set [1], the IC50 stood at 20000 nM and the IC90 is greater than 20000 nM. In the data set with HIV-1IIIB, this molecule returned an EC50 of 590 nM. In addition, the IC50 in data set [2] was greater than 20000 nM.
In the data set with HCV RNA replicon ET, `C/C=C/C[C@@H](C)[C@@H](O)[C@H]1C(=O)N[C@@H](CC)C(=O)N(C)C(OCc2ccc(OC(F)(F)F)cc2)C(=O)N(C)[C@@H](CC(C)C)C(=O)N[C@@H](C(C)C)C(=O)N(C)[C@@H](CC(C)C)C(=O)N[C@@H](C)C(=O)N[C@H](C)C(=O)N(C)[C@@H](CC(C)C)C(=O)N(C)[C@@H](CC(C)C)C(=O)N(C)[C@@H](C(C)C)C(=O)N1C` (stereo partly drawn) [F, 3-[(4-trifluoromethoxy)benzyloxy]cyclosporin] showed an EC50 of 1180 nM and an EC90 of 5420 nM. For the same molecule, in data set [1], the IC50 is greater than 20000 nM and the IC90 was greater than 20000 nM. In the data set on HIV-1IIIB, this molecule came in with an EC50 greater than 20000 nM. The same molecule had an IC50 in data set [2] greater than 20000 nM.
In the data set with HCV RNA replicon ET, `C/C=C/C[C@@H](C)[C@@H](O)[C@H]1C(=O)N[C@@H](CC)C(=O)N(C)C(OCc2ccco2)C(=O)N(C)[C@@H](CC(C)C)C(=O)N[C@@H](C(C)C)C(=O)N(C)[C@@H](CC(C)C)C(=O)N[C@@H](C)C(=O)N[C@H](C)C(=O)N(C)[C@@H](CC(C)C)C(=O)N(C)[C@@H](CC(C)C)C(=O)N(C)[C@@H](C(C)C)C(=O)N1C` (stereo partly drawn) [D, 3-[(furan-2-yl)methoxy]cyclosporin] displayed an EC50 of 290 nM and an EC90 of 570 nM. Moreover, in data set [1], the IC50 stood at 18000 nM and the IC90 was greater than 20000 nM. In addition, the EC50 in the data set on HIV-1IIIB came to 580 nM. Further, the IC50 in data set [2] was greater than 20000 nM.
